According to PubChem BioAssay (NCI):
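Tested at 5 concentrations; 48 h exposure; 96-well plates; endpoints linearly interpolated, else capped at highest concentration. GI50: concentration for 50% inhibition of growth. The concentration for full growth arrest is given as TGI.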

Legend:
Assay in all cases: NCI tumour cell line growth inhibition, 48 h
SK-OV-3 ovarian = test system: SK-OV-3 ovarian
HCT-116 colon = test system: HCT-116 colon
HCC-2998 colon = test system: HCC-2998 colon
786-0 renal = test system: 786-0 renal
SF-539 CNS = test system: SF-539 CNS
SNB-75 CNS = test system: SNB-75 CNS
M14 melanoma = test system: M14 melanoma
SF-295 CNS = test system: SF-295 CNS
OVCAR-5 ovarian = test system: OVCAR-5 ovarian
UACC-62 melanoma = test system: UACC-62 melanoma
DU-145 prostate = test system: DU-145 prostate
COLO 205 colon = test system: COLO 205 colon
RXF 393 renal = test system: RXF 393 renal
ACHN renal = test system: ACHN renal
MDA-MB-231 breast = test system: MDA-MB-231 breast
NCI-H226 lung = test system: NCI-H226 lung
SW-620 colon = test system: SW-620 colon
NCI-H522 lung = test system: NCI-H522 lung
TK-10 renal = test system: TK-10 renal
CCRF-CEM leukemia = test system: CCRF-CEM leukemia
MOLT-4 leukemia = test system: MOLT-4 leukemia
SNB-19 CNS = test system: SNB-19 CNS
OVCAR-3 ovarian = test system: OVCAR-3 ovarian
SK-MEL-2 melanoma = test system: SK-MEL-2 melanoma
NCI-H460 lung = test system: NCI-H460 lung
A549 NSCLC = test system: A549 NSCLC
UO-31 renal = test system: UO-31 renal
MCF7 breast = test system: MCF7 breast
HOP-62 NSCLC = test system: HOP-62 NSCLC
EKVX NSCLC = test system: EKVX NSCLC
SR leukemia = test system: SR leukemia
UACC-257 melanoma = test system: UACC-257 melanoma
SN12C renal = test system: SN12C renal
HOP-92 NSCLC = test system: HOP-92 NSCLC
OVCAR-8 ovarian = test system: OVCAR-8 ovarian
IGROV1 ovarian = test system: IGROV1 ovarian
NCI/ADR-RES ovarian = test system: NCI/ADR-RES ovarian
PC-3 prostate = test system: PC-3 prostate
MDA-MB-435 = test system: MDA-MB-435
OVCAR-4 ovarian = test system: OVCAR-4 ovarian
A498 renal = test system: A498 renal
BT-549 breast = test system: BT-549 breast
K-562 leukemia = test system: K-562 leukemia
MALME-3M melanoma = test system: MALME-3M melanoma
RPMI-8226 leukemia = test system: RPMI-8226 leukemia
CAKI-1 renal = test system: CAKI-1 renal
KM12 colon = test system: KM12 colon
HCT-15 colon = test system: HCT-15 colon
SK-MEL-28 melanoma = test system: SK-MEL-28 melanoma
HS 578T breast = test system: HS 578T breast
HT29 colon = test system: HT29 colon
SF-268 CNS = test system: SF-268 CNS
LOX IMVI melanoma = test system: LOX IMVI melanoma
T-47D breast = test system: T-47D breast
U251 CNS = test system: U251 CNS
NCI-H23 lung = test system: NCI-H23 lung
HL-60(TB) leukemia = test system: HL-60(TB) leukemia
SK-MEL-5 melanoma = test system: SK-MEL-5 melanoma

Compound: C[C@@]1(F)[C@H](O)[C@@H](CO)O[C@H]1n1ccc(=O)[nH]c1=O
- GI50 (SK-OV-3 ovarian): > 100 µM
- TGI (SK-OV-3 ovarian): > 100 µM
- GI50 (HCT-116 colon): > 100 µM
- TGI (HCT-116 colon): > 100 µM
- GI50 (HCC-2998 colon): > 100 µM
- TGI (HCC-2998 colon): > 100 µM
- GI50 (786-0 renal): > 100 µM
- TGI (786-0 renal): > 100 µM
- GI50 (SF-539 CNS): > 100 µM
- TGI (SF-539 CNS): > 100 µM
- GI50 (SNB-75 CNS): > 100 µM
- TGI (SNB-75 CNS): > 100 µM
- GI50 (M14 melanoma): > 100 µM
- TGI (M14 melanoma): > 100 µM
- GI50 (SF-295 CNS): > 100 µM
- TGI (SF-295 CNS): > 100 µM
- GI50 (OVCAR-5 ovarian): > 100 µM
- TGI (OVCAR-5 ovarian): > 100 µM
- GI50 (UACC-62 melanoma): > 100 µM
- TGI (UACC-62 melanoma): > 100 µM
- GI50 (DU-145 prostate): > 100 µM
- TGI (DU-145 prostate): > 100 µM
- GI50 (COLO 205 colon): > 100 µM
- TGI (COLO 205 colon): > 100 µM
- GI50 (RXF 393 renal): > 100 µM
- TGI (RXF 393 renal): > 100 µM
- GI50 (ACHN renal): > 100 µM
- TGI (ACHN renal): > 100 µM
- GI50 (MDA-MB-231 breast): > 100 µM
- TGI (MDA-MB-231 breast): > 100 µM
- GI50 (NCI-H226 lung): > 100 µM
- TGI (NCI-H226 lung): > 100 µM
- GI50 (SW-620 colon): > 100 µM
- TGI (SW-620 colon): > 100 µM
- GI50 (NCI-H522 lung): > 100 µM
- TGI (NCI-H522 lung): > 100 µM
- GI50 (TK-10 renal): > 100 µM
- TGI (TK-10 renal): > 100 µM
- GI50 (CCRF-CEM leukemia): > 100 µM
- TGI (CCRF-CEM leukemia): > 100 µM
- GI50 (MOLT-4 leukemia): > 100 µM
- TGI (MOLT-4 leukemia): > 100 µM
- GI50 (SNB-19 CNS): > 100 µM
- TGI (SNB-19 CNS): > 100 µM
- GI50 (OVCAR-3 ovarian): > 100 µM
- TGI (OVCAR-3 ovarian): > 100 µM
- GI50 (SK-MEL-2 melanoma): > 100 µM
- TGI (SK-MEL-2 melanoma): > 100 µM
- GI50 (NCI-H460 lung): > 100 µM
- TGI (NCI-H460 lung): > 100 µM
- GI50 (A549 NSCLC): > 100 µM
- TGI (A549 NSCLC): > 100 µM
- GI50 (UO-31 renal): > 100 µM
- TGI (UO-31 renal): > 100 µM
- GI50 (MCF7 breast): > 100 µM
- TGI (MCF7 breast): > 100 µM
- GI50 (HOP-62 NSCLC): > 100 µM
- TGI (HOP-62 NSCLC): > 100 µM
- GI50 (EKVX NSCLC): > 100 µM
- TGI (EKVX NSCLC): > 100 µM
- GI50 (SR leukemia): > 100 µM
- TGI (SR leukemia): > 100 µM
- GI50 (UACC-257 melanoma): > 100 µM
- TGI (UACC-257 melanoma): > 100 µM
- GI50 (SN12C renal): > 100 µM
- TGI (SN12C renal): > 100 µM
- GI50 (HOP-92 NSCLC): > 100 µM
- TGI (HOP-92 NSCLC): > 100 µM
- GI50 (OVCAR-8 ovarian): > 100 µM
- TGI (OVCAR-8 ovarian): > 100 µM
- GI50 (IGROV1 ovarian): > 100 µM
- TGI (IGROV1 ovarian): > 100 µM
- GI50 (NCI/ADR-RES ovarian): > 100 µM
- TGI (NCI/ADR-RES ovarian): > 100 µM
- GI50 (PC-3 prostate): > 100 µM
- TGI (PC-3 prostate): > 100 µM
- GI50 (MDA-MB-435): > 100 µM
- TGI (MDA-MB-435): > 100 µM
- GI50 (OVCAR-4 ovarian): > 100 µM
- TGI (OVCAR-4 ovarian): > 100 µM
- GI50 (A498 renal): > 100 µM
- TGI (A498 renal): > 100 µM
- GI50 (BT-549 breast): > 100 µM
- TGI (BT-549 breast): > 100 µM
- GI50 (K-562 leukemia): > 100 µM
- TGI (K-562 leukemia): > 100 µM
- GI50 (MALME-3M melanoma): > 100 µM
- TGI (MALME-3M melanoma): > 100 µM
- GI50 (RPMI-8226 leukemia): > 100 µM
- TGI (RPMI-8226 leukemia): > 100 µM
- GI50 (CAKI-1 renal): > 100 µM
- TGI (CAKI-1 renal): > 100 µM
- GI50 (KM12 colon): > 100 µM
- TGI (KM12 colon): > 100 µM
- GI50 (HCT-15 colon): > 100 µM
- TGI (HCT-15 colon): > 100 µM
- GI50 (SK-MEL-28 melanoma): > 100 µM
- TGI (SK-MEL-28 melanoma): > 100 µM
- GI50 (HS 578T breast): > 100 µM
- TGI (HS 578T breast): > 100 µM
- GI50 (HT29 colon): > 100 µM
- TGI (HT29 colon): > 100 µM
- GI50 (SF-268 CNS): > 100 µM
- TGI (SF-268 CNS): > 100 µM
- GI50 (LOX IMVI melanoma): > 100 µM
- TGI (LOX IMVI melanoma): > 100 µM
- GI50 (T-47D breast): > 100 µM
- TGI (T-47D breast): > 100 µM
- GI50 (U251 CNS): > 100 µM
- TGI (U251 CNS): > 100 µM
- GI50 (NCI-H23 lung): > 100 µM
- TGI (NCI-H23 lung): > 100 µM
- GI50 (HL-60(TB) leukemia): > 100 µM
- TGI (HL-60(TB) leukemia): > 100 µM
- GI50 (SK-MEL-5 melanoma): > 100 µM
- TGI (SK-MEL-5 melanoma): > 100 µM
